Assay results: patent US12441693B2, “Targeting STAT sumoylation to enhance immune responses” (THE GEORGE WASHINGTON UNIVERSITY, priority 2018, dated 2025)

How the values were obtained:
NK cells = conditions: single agent, 48 hours
Protocol: To determine if STAT SUMOylation increases Gzm B expression in NK cells, isolated human NK cells were analyzed after a 3-day incubation with either IL-2, IL-15, HODHBt, IL-2+IL-15, HODHBt+IL-2, HODHBt+IL-15, or HODHBt+IL-2+IL-15.
To further characterize the effects of STAT SUMOylation inhibition in NK cell function, primary human NK cells were isolated and cultured with IL-15 in the presence or absence of HODHBt. 48 hours later, cells were phenotyped by flow cytometry.
To characterize the induction of other proteins known to be important for the cytolytic activity of NK cells, primary human NK cells were isolated from 6 male and 6 female donors and cultured with IL-15 in the presence or absence of HODHBt. 48 hours later, levels of Granzyme A (FIG. 18A), Perforin (FIG. 18B), Granulysin (FIG. 18C), TRAIL (FIG. 18D) and Fas ligand (FASL) (FIG. 18E) were analyzed by flow cytometry.
Antibody-dependent cell-mediated cytotoxicity (ADCC) is mediated by the recognition of an antibody bound to a cell through an Fc receptor present in NK cells, mostly CD16 (FCGR3A). To address whether inhibiting STAT SUMOylation alters CD16 expression in the surface of NK cells, freshly isolated NK cells were treated with either IL-15, HODHBt or a combination of both for 48 hours and surface expression of CD16 was measured by flow cytometry.
Since IL-15 activated STATs, it was hypothesized that STATs, and in particular STAT1, was controlling expression of CXCR5 (C—X—C Motif Chemokine Receptor 5) and that inhibiting STAT SUMOylation enhances CXCR5 expression and promotes migration towards a CXCL13 (C—X—C Motif Chemokine Ligand 13) gradient. CXCL13 controls homing of lymphocytes to follicles in lymph nodes; however whether this mechanism of regulation exists in human NK cells and whether IL-15 controls expression were unknown. To address which one of the two scenarios was potentially playing a role in the presence of NK cells within the follicles, human NK cells were treated with IL-15, HODHBt or a combination of both for 48 hours. Surface expression of CXCR5 and viability were next measured by flow cytometry.
To phenotype the cells, 1×10^5 cells were stained with a viability dye (Fixable Viability Dye eFluor 450, Affymetrix, eBioscience, San Diego, CA) and the surface marker-specific mAb specific for human: PE-anti-CD25 (Caltag, Burlingame, CA) and PE-anti-CD69 (Caltag, Burlingame, CA) followed by flow cytometric analysis in a BD FACScanto II flow cytometer using the FACSDiva software (Becton Dickinson, Mountain View, CA) and analyzed using FlowJo (Tree Star Inc., Ashland, OR).

K562 = experiment: NK cell killing of K562 cells, E:T 1:1, 4 hours; assay type: cell-based, human; conditions: NK cells pretreated with single agent, E:T 1:1, 4 hours
Protocol: It was therefore hypothesized that inhibiting STAT SUMOylation may enhance the ability of IL-15 stimulated NK cells to clear the HIV latent reservoir. To test the hypothesis, NK cells were treated with DMSO, IL-15-stimulated, treated with HODHBt or IL-15-stimulated and treated with HODHBt. Cells were then tested in their ability to kill the erythroleukemia cell line K562, which lack MHC-I. In an experiment, the NK cells from two donors were co-cultured with K562 at an E:T ratio of 1:1 for 4 hours (FIG. 19A). NK cells were pretreated with IL-15, HODHBt, or a combination of both.

[1] = test system: primary human CD4 T cells; experiment: Viability of primary CD4 T cells in the screening; assay type: cell-based; conditions: at the concentration tested
Protocol: It was observed that the ability of different benzotriazole and benzotriazin derivatives to increase STAT5 phosphorylation correlated with the ability of the compounds to induce the expression of CD69 (a STAT5 target gene) (FIG. 2A) but not CD25 (FIG. 2B) in the surface of human CD4 T cells. Based on these findings, a primary cell screening assay was set up according to FIG. 2C to identify derivatives with similar activity. As an example, flow cytometry was performed to isolated activated cells (FIG. 2D), which were expanded in the presence of DMSO or a compound of interest (FIG. 2E), and screened for changes in the expression of CD69 (FIG. 2F).

Row | Compound | surface expression of CD69 on NK cells (NK cells) | surface expression of CXCR5 on NK cells (NK cells) | expression of Granzyme A, Perforin, Granulysin, TRAIL and FASL in NK cells (NK cells; 6 male and 6 female donors) | expression of GZMB in NK cells (NK cells; vs media control) | killing of K562 by pretreated NK cells (K562) | toxicity / viability of primary CD4 T cells [1]
1 | IL-15: interleukin-15 (IL-15), cytokine | induced the surface expression of CD69 | induced surface expression of CXCR5 | induced the expression of all these genes | increased the expression of GZMB | induced increase killing of K562 over a 4-hour period | –
2 | CC(C)(C)OC(=O)NCc1ccc(C(=O)On2nnc3ccccc3c2=O)cc1 [BIN024] | – | – | – | – | – | high levels of toxicity
